Active and inactive are the calls of the source. The rule behind the calls is not given here.
Experiments:
Leishmania amazonensis [1] = experiment: Antileishmanial activity against Leishmania amazonensis promastigotes assessed as early apoptotic parasites at 38.1 uM incubated for 72 hrs by Annexin V/7-AAD staining based flow cytometry analysis relative to control; assay type: functional
Leishmania amazonensis [2] = experiment: Antileishmanial activity against leishmania amazonensis infected in BALB/c mouse assessed as reduction in parasite load in footpad tissue at 5 mg/kg, ILES measured after 65 days post infection by limiting dilution assay; assay type: functional, organism-based; details: time 65.0 day
[3] = Cytotoxicity against BALB/c mouse Peritoneal macrophage assessed as inhibition of cell growth incubated for 48 hrs by MTT assay; assay type: toxicity, cell-based; details: peritoneal macrophages
Leishmania amazonensis [4] = experiment: Antileishmanial activity against Leishmania amazonensis promastigotes assessed as viable apoptotic parasites at 38.1 uM incubated for 72 hrs by Annexin V/7-AAD staining based flow cytometry analysis relative to control; assay type: functional
[5] = Mutagenicity in Salmonella typhimurium TA102 assessed as number of revertant colonies per plate at 1500 microg/ml by Ames test; assay type: toxicity; details: salmonella enterica subsp. enterica serovar typhimurium; dose 1500 µg/ml
[6] = Mutagenicity in Salmonella typhimurium TA98 assessed as number of revertant colonies per plate at 5000 microg/ml by Ames test; assay type: toxicity; details: salmonella enterica subsp. enterica serovar typhimurium; dose 5000 µg/ml
[7] = Mutagenicity in Salmonella typhimurium TA98 assessed as number of revertant colonies per plate at 50 microg/ml by Ames test; assay type: toxicity; details: salmonella enterica subsp. enterica serovar typhimurium; dose 50 µg/ml
Leishmania amazonensis [8] = experiment: Antileishmanial activity against leishmania amazonensis infected in BALB/c mouse assessed as reduction in […] at 5 mg/kg, ILES measured after 65 days post infection by limiting dilution assay; assay type: functional, organism-based; details: time 65.0 day
[9] = Mutagenicity in Salmonella typhimurium TA102 assessed as number of revertant colonies per plate at 150 microg/ml by Ames test; assay type: toxicity; details: salmonella enterica subsp. enterica serovar typhimurium; dose 150 µg/ml
Leishmania amazonensis [10] = experiment: Antileishmanial activity against Leishmania amazonensis promastigotes assessed as late apoptotic parasites at 38.1 uM incubated for 72 hrs by Annexin V/7-AAD staining based flow cytometry analysis relative to control; assay type: functional
Leishmania amazonensis [11] = experiment: Antileishmanial activity against leishmania amazonensis infected in BALB/c mouse assessed as reduction in viable parasites in footpad tissue at 5 mg/kg, ILES measured after 65 days post infection relative to control; assay type: functional; details: time 65 day
Leishmania amazonensis [12] = experiment: Antileishmanial activity against leishmania amazonensis infected in BALB/c mouse assessed as reduction in footpad swelling at 5 mg/kg, ILES measured at week 5; assay type: functional, organism-based; details: time 5.0 weeks
Leishmania amazonensis [13] = experiment: Antileishmanial activity against Leishmania amazonensis promastigotes assessed as late apoptotic parasites at 38.1 uM incubated for 48 hrs by Annexin V/7-AAD staining based flow cytometry analysis relative to control; assay type: functional
Leishmania amazonensis [14] = experiment: Potency index, ratio of Amphotericin B IC50 to test compound IC50 for antileishmanial activity against leishmania amazonensis IFLA/BR/1967/PH8 promastigotes infected in mouse Peritoneal macrophage incubated for 24 hrs; assay type: functional
Leishmania amazonensis [15] = experiment: Antileishmanial activity against Leishmania amazonensis promastigotes assessed as early apoptotic parasites at 38.1 uM incubated for 48 hrs by Annexin V/7-AAD staining based flow cytometry analysis relative to control; assay type: functional
[16] = Mutagenicity in Salmonella typhimurium TA102 assessed as number of revertant colonies per plate at 1500 microg/ml in presence of S9 fraction by Ames test; assay type: toxicity, subcellular; details: salmonella enterica subsp. enterica serovar typhimurium, dose 1500 µg/ml
[17] = Mutagenicity in Salmonella typhimurium TA100 assessed as number of revertant colonies per plate at 5000 microg/ml by Ames test; assay type: toxicity; details: salmonella enterica subsp. enterica serovar typhimurium; dose 5000 µg/ml
[18] = Mutagenicity in Salmonella typhimurium TA100 assessed as number of revertant colonies per plate at 50 microg/ml by Ames test; assay type: toxicity; details: salmonella enterica subsp. enterica serovar typhimurium; dose 50 µg/ml
Leishmania amazonensis [19] = experiment: Antileishmanial activity against Leishmania amazonensis promastigotes assessed as viable apoptotic parasites at 38.1 uM incubated for 48 hrs by Annexin V/7-AAD staining based flow cytometry analysis relative to control; assay type: functional
Leishmania amazonensis [20] = experiment: Antileishmanial activity against leishmania amazonensis IFLA/BR/1967/PH8 intracellular amastigote infected in mouse Peritoneal macrophage incubated for 24 hrs; assay type: functional, organism-based; details: IFLA/BR/1967/PH8, Peritoneal macrophage
[21] = Selectivity ratio of CC50 for cytotoxicity against BALB/c mouse Peritoneal macrophage assessed as inhibition of cell growth to IC50 for antileishmanial activity against leishmania amazonensis IFLA/BR/1967/PH8 intracellular amastigote infected in mouse Peritoneal macrophage; assay type: toxicity, cell-based; details: peritoneal macrophages, read-out: Ratio CC50/IC50
Leishmania amazonensis [22] = experiment: Antileishmanial activity against leishmania amazonensis IFLA/BR/1967/PH8 promastigotes infected in mouse Peritoneal macrophage incubated for 24 hrs; assay type: functional, organism-based; details: IFLA/BR/1967/PH8, Peritoneal macrophage
[23] = Mutagenicity in Salmonella typhimurium TA100 assessed as number of revertant colonies per plate at 1500 microg/ml by Ames test; assay type: toxicity; details: salmonella enterica subsp. enterica serovar typhimurium; dose 1500 µg/ml
Leishmania amazonensis [24] = experiment: Antileishmanial activity against leishmania amazonensis infected in BALB/c mouse assessed as reduction in lesion size at 5 mg/kg, ILES measured at 6 to 9 week post infection; assay type: functional, organism-based; details: time 6-9 weeks
Leishmania amazonensis [25] = experiment: Antileishmanial activity against Leishmania amazonensis promastigotes assessed as necrotic parasites at 38.1 uM incubated for 72 hrs by Annexin V/7-AAD staining based flow cytometry analysis relative to control; assay type: functional
[26] = Mutagenicity in Salmonella typhimurium TA102 assessed as number of revertant colonies per plate at 5000 microg/ml in presence of S9 fraction by Ames test; assay type: toxicity, subcellular; details: salmonella enterica subsp. enterica serovar typhimurium, dose 5000 µg/ml
Mitochondrial membrane = experiment: Induction of mitochondrial membrane potential in Leishmania amazonensis promastigotes at 38.1 uM measured at 48 hrs by flow cytometry analysis; assay type: cell membranes
Leishmania amazonensis [27] = experiment: Antileishmanial activity against Leishmania amazonensis promastigotes assessed as necrotic parasites at 38.1 uM incubated for 24 hrs by Annexin V/7-AAD staining based flow cytometry analysis relative to control; assay type: functional
[28] = Mutagenicity in Salmonella typhimurium TA100 assessed as number of revertant colonies per plate at 150 microg/ml by Ames test; assay type: toxicity; details: salmonella enterica subsp. enterica serovar typhimurium; dose 150 µg/ml
[29] = Mutagenicity in Salmonella typhimurium TA102 assessed as number of revertant colonies per plate at 500 microg/ml in presence of S9 fraction by Ames test; assay type: toxicity, subcellular; details: salmonella enterica subsp. enterica serovar typhimurium, dose 500 µg/ml
[30] = Selectivity ratio of CC50 for cytotoxicity against BALB/c mouse Peritoneal macrophage assessed as inhibition of cell growth to IC50 for antileishmanial activity against leishmania amazonensis IFLA/BR/1967/PH8 promastigotes infected in mouse Peritoneal macrophage; assay type: toxicity, cell-based; details: peritoneal macrophages, read-out: Ratio CC50/IC50
Leishmania amazonensis [31] = experiment: Antileishmanial activity against Leishmania amazonensis promastigotes assessed as early apoptotic parasites at 38.1 uM incubated for 24 hrs by Annexin V/7-AAD staining based flow cytometry analysis relative to control; assay type: functional
Leishmania amazonensis [32] = experiment: Antileishmanial activity against Leishmania amazonensis promastigotes assessed as necrotic parasites at 38.1 uM incubated for 48 hrs by Annexin V/7-AAD staining based flow cytometry analysis relative to control; assay type: functional
[33] = Mutagenicity in Salmonella typhimurium TA102 assessed as number of revertant colonies per plate at 50 microg/ml by Ames test; assay type: toxicity; details: salmonella enterica subsp. enterica serovar typhimurium; dose 50 µg/ml
[34] = Mutagenicity in Salmonella typhimurium TA102 assessed as number of revertant colonies per plate at 5000 microg/ml by Ames test; assay type: toxicity; details: salmonella enterica subsp. enterica serovar typhimurium; dose 5000 µg/ml

COc1cc(-c2cc(-c3ccc4c(c3)OCO4)on2)c(Cl)c(OC)c1OC
Activity (Leishmania amazonensis [1]): 2.4%
Activity (Leishmania amazonensis [2]): Active
CC50 at 48 h [3]: 50.1 µM
Activity (Leishmania amazonensis [4]): 93.2%
Activity [5]: 182 revertants/plate
revertant count [6]: 21.3 revertants/plate
Activity [7]: 19.7 revertants/plate
Activity (Leishmania amazonensis [8]): Active
Activity [9]: 142 revertants/plate
Activity (Leishmania amazonensis [10]): 1.9%
Activity (Leishmania amazonensis [11]): 99.5%
Activity (Leishmania amazonensis [12]): Active
Activity (Leishmania amazonensis [13]): 0.6%
Ratio IC50 (Leishmania amazonensis [14]): 3.6
Activity (Leishmania amazonensis [15]): 3.6%
Activity [16]: 100 revertants/plate
Activity [17]: 114 revertants/plate
revertant count [18]: 103 revertants/plate
Activity (Leishmania amazonensis [19]): 95.2%
IC50 (Leishmania amazonensis [20]): 2.2 µM
selectivity ratio [21]: 22.7
IC50 (Leishmania amazonensis [22]): 38.1 µM
Activity [23]: 116 revertants/plate
Activity (Leishmania amazonensis [24]): Active
Activity (Leishmania amazonensis [25]): 2.5%
revertant count [26]: 100 revertants/plate
Activity (Mitochondrial membrane): Active
Activity (Leishmania amazonensis [27]): 0.3%
Activity [28]: 94.6 revertants/plate
revertant count [29]: 109 revertants/plate
selectivity ratio [30]: 1.3
Activity (Leishmania amazonensis [31]): 0.8%
Activity (Leishmania amazonensis [32]): 0.6%
revertant count [33]: 139 revertants/plate
revertant count [34]: 194 revertants/plate

Reference: ChEMBL document CHEMBL6177952, “Exploring chloro-isoxazole compounds inspired on tetrahydrofuran neolignans as promising antileishmanial agents” (Eur J Med Chem, 2025)
